Reference: publication PMC12217462 (Antimicrobial Agents and Chemotherapy, 2025)
“And” between values parts separate entries of the source, which are not always exact repeats. Equal entries are not always repeated. Where two headings read alike, the source gives them in different places.

Key:
[1] = system: Babesia duncani; assay: Propidium iodide-based in vitro dose-response assay, B. duncani-infected red blood cells, 384-well plates; format: cell-based; conditions: for EC90: read-out: EC90 (95% CI)
Experimental: Frozen stocks of B. duncani were provided by the Ben Mamoun lab at Yale University. Culture maintenance was undertaken as described by Singh et al^18 with the following adaptations: Media, completed DMEM/F12 (cDMEM; 20% heat-inactivated fetal bovine serum (Sigma-Aldrich catalogue #12,306 C-500ML), 1 x HT media supplement (Sigma-Aldrich catalogue # H0137-10VL), 1 x L-glutamine (Gibco, catalogue # 25030–081), 1 x antibiotic-antimycotic (Gibco catalogue #15240–062), and 1 x gentamicin (Gibco catalogue #15710–072)), was changed every other day and cultures were kept in a modular incubator gassed with 2% O2, 5% CO2, 93% N2 at 37°C. Passage occurred once a week into fresh blood at 1%–2% parasitemia, 5% hematocrit, and fresh A + blood was obtained once a week from the University of Vermont Medical Center Blood Bank. Four days before the start of drug assay testing, a 10 mL, 5% hematocrit culture was infected to 2% parasitemia with Babesia duncani. One day before the start, the media was changed, and parasitemia was assessed by light microscopy examination of Giemsa-stained thin blood smears with a minimum of 500 red blood cells counted.
Fresh A + blood was washed three times, and a stock 10% hematocrit (HCT) solution of uninfected red cells in completed F12/DMEM media (cDMEM) was created. In a 96-well plate, a pellet from a vigorously growing (≥20% parasitemia) culture was used to create a 10% hematocrit starting well that was then serially diluted five times with the stock 10% hematocrit solution. 25 µL of each serial dilution was transferred to a white, clear-bottom 384-well plate (Falcon, catalog #353963) in triplicate before 25 µL of cDMEM was added to each well, followed by 25 µL of 0.6% Triton-X, 22.5 µM PI in phosphate-buffered solution. The 384-well plate was then shaken for 30 seconds, incubated at 37°C for 1 hour (in the dark), then moved to room temperature in the dark. After 24 hours, the plate was read using a Synergy H1 (BioTek, Winooski, VT) with excitation = 535 nm, emission = 615 nm, sensitivity = 150, and readings taken from the bottom of the wells. Blood smears were made from select undiluted starting wells and stained with Giemsa, and parasitemia was calculated manually from a minimum of 1,000 counted red blood cells. The experiment was repeated twice.
(§1) Prior to the removal of the culture(s) from the modular incubator, fresh A + blood was washed three times with PSG +and compounds (in DMSO stocks) to be tested were prepared in a 96-well plate by serial dilution in cDMEM. Once prepared, the culture(s) were removed from the modular incubator, collected, and washed once with 7 mL of cDMEM. A 10% hematocrit, 5% parasitemia stock in cDMEM was made, and 25 µL aliquoted into a 384-well plate with constant agitation, followed by 25 µL of compound dilution (quadruplicates). The positive growth control was given 25 µL of 0.5% dimethyl sulfoxide (DMSO) in cDMEM (final 0.25% DMSO), and the negative growth control was 25 µL of 50 µM WR99210 (0.5% DMSO) (final 25 µM WR99210, 0.25% DMSO). Plates were incubated as previously described, smears of the positive growth control were made, and the plates were read as previously described. Smears were stained by Giemsa, and a minimum of 1,000 RBCs were counted to determine parasitemia. Dose-response assays were repeated twice.
Pilot dose-response experiments were performed using WR99210 (a DHFR inhibitor with known effect on Babesia duncani), DMSO vehicle, and standard of care drugs atovaquone, clindamycin, quinine, and azithromycin ([20]).
The positive growth control was treated with 25 µL of 0.5% dimethyl sulfoxide (DMSO) in cDMEM (final 0.25% DMSO), and the negative growth control with 25 µL of 50 µM WR99210 (0.5% DMSO) (final 25 µM WR99210, 0.25% DMSO). The plate was incubated for 48 hours and then the plate was stained and read as previously described.

[2] = system: HCT8 cells; assay: Cytotoxicity on confluent monolayer HCT8 cells (Promega CellTiter Aqueous One MTS assay); format: cell-based, human; conditions: 48 hours, highest final concentration 100 µM, two replicate experiments
Experimental: Human HCT8 cells were grown in tissue culture flasks until a confluent monolayer was achieved. […] Cells were incubated with the drug for 48 hours. Promega CellTiter Aqueous One Solution Cell Proliferation Assay (MTS) (PRG3580) was commercially obtained and used to ascertain cell viability, with […] measured using a Biotek microplate reader. Cells incubated in 0.5% DMSO served as a positive growth control and comparator arm.

[3] = system: B. divergens; design: method as in earlier work; conditions: ref 35 (Vanheer et al.); cited from earlier work
[4] = system: Babesia duncani; assay: Bug Box single-concentration screen, PI assay in 384-well plates; format: cell-based; conditions: read-out: Inhibition in Bug Box screen (hit definition)
Experimental: as §1
The Bug Box is a collection of 40 compounds with known antimicrobial and/or bioactivity, which was provided by the Structural Genomics Consortium (SGC)-Toronto. The full list of compounds is available in the supplement. They were obtained in 10 mM aliquots and screened in 384-well plates at 1 µM and 5 µM dilutions with four technical replicates per dilution. Hits were defined as those compounds with at least 80% inhibition. Hits were validated by dose-response curves using commercially obtained compounds with verified purity. The only exception to this was in the verification of compound M7, which is a proprietary compound that could be obtained only from SGC-Toronto. Dose-response curves were created from two independent experiments, each with nine dilutions of the drug.

[5] = system: Babesia duncani; conditions: cited from earlier work
[6] = Cytotoxicity on confluent monolayer HCT8 cells (Promega CellTiter Aqueous One MTS assay); format: cell-based; conditions: human HCT8 cells
[7] = cited from earlier work
[8] = design: method as in PMID 22553374; conditions: oral, 28-day, once-daily dosing study in humans; cited from earlier work
[9] = system: P. falciparum; design: method as in PMID 26199860, PMID 33541085; conditions: depending on the strain tested; cited from earlier work
[10] = system: solid tumor cells; design: method as in PMID 19344997; conditions: cited from earlier work
[11] = system: liquid tumor cell lines; design: method as in PMID 19344997; conditions: cited from earlier work
[12] = system: normal cell lines (human mammary and renal epithelial cells, among others); design: method as in PMID 19344997; conditions: cited from earlier work
[13] = system: malignant cells; design: method as in PMID 19344997; conditions: malignant cells treated; cited from earlier work
[14] = system: normal cells; design: method as in PMID 19344997; conditions: cited from earlier work
[15] = Babesia duncani, Erythrocyte, Table 1, B. duncani, two replicate 9-point dilution experiments, combined data, read-out: EC50
[16] = Babesia duncani, Erythrocyte, 48 h, given in Fig 2 and Fig 3B, nine-point serial dilution, 48 hours, experiments repeated twice, read-out: EC50 (95% CI)
[17] = Babesia duncani, Erythrocyte, 48 h, B. duncani in vitro, 48 hours of incubation, PI staining, read-out: EC50
[18] = Babesia duncani, Erythrocyte, given in Fig 2 and Fig 3B, nine-point serial dilution, 48 hours, experiments repeated twice
[19] = B. duncani in vitro, 48 hours of incubation, PI staining, read-out: EC50
[20] = screened at 5 µM, four technical replicates
[21] = Babesia duncani, Erythrocyte, B. duncani, read-out: In vitro IC90
[22] = Babesia duncani, Erythrocyte, conversion of B. duncani IC90, read-out: Free plasma concentration equivalent to IC90
[23] = 12 mg given orally (PO) thrice weekly

O=C(/C=C/c1ccc(CN(CCO)CCc2c[nH]c3ccccc23)cc1)NO [Dacinostat]
EC50 [1, 15]: 23 nM | TC50 HCT8 [2]: 150000 nM | EC50 [3]: 112 nM

CCC[C@@H]1C[C@@H](C(=O)N[C@@H]([C@H]2O[C@H](SC)[C@H](O)[C@@H](O)[C@H]2O)[C@H](C)Cl)N(C)C1 [Clindamycin]
EC50 [1, 16]: > 50000 nM | Inhibition of B. duncani growth (in words) ([1]; dose-response assay, 48 hours): appeared not to inhibit at all

C=C[C@H]1C[N@@]2CC[C@H]1C[C@H]2[C@H](O)c1ccnc2ccc(OC)cc12 [Quinine]
EC50 [1, 17]: 17500 nM | EC50 [1, 16]: 18000 nM | EC90 [1, 18]: 33000 nM

Nc1ccccc1NC(=O)c1ccc(CNc2nccc(-c3cccnc3)n2)cc1 [Mocetinostat]
EC50 [1, 15]: 2500 nM | TC50 HCT8 [2]: 56000 nM

O=C1C(O)=C([C@H]2CC[C@H](c3ccc(Cl)cc3)CC2)C(=O)c2ccccc21 [Atovaquone]
EC50 [1, 19]: 517 nM | EC50 [1, 17]: 518 nM | EC50 [1, 16]: 520 nM | EC90 [1, 18]: 780 nM | inhibition at 5 µM [4, 20]: > 80% | EC50 ([5]; Babesia duncani, SYBR green assay, ref 9 (Abraham et al.)): 500 nM | EC50 ([5]; later Babesia duncani testing, same lab group): 72 nM

Nc1ccccc1NC(=O)c1ccc(CNC(=O)OCc2cccnc2)cc1 [Entinostat]
EC50 [1, 15]: 23000 nM | TC50 HCT8 [2]: 110000 nM

O=C(/C=C/c1cccc(S(=O)(=O)Nc2ccccc2)c1)NO [Belinostat]
EC50 [1, 15]: 150 nM | TC50 HCT8 [2]: 90000 nM

O=C(CCCCCCC(=O)Nc1ccccc1)NO [Vorinostat]
TC50 HCT8 (µM) [2]: No toxicity

O=C(NO)c1cnc(N2C[C@@H]3[C@H](C2)[C@H]3NCc2ccc3cc(F)ccc3n2)nc1 [Nanatinostat]
EC50 [1, 19]: 23.8 nM | EC50 [1, 17]: 23 nM | EC50 [1, 15]: 24 nM | IC90 [1, 21]: 64 nM | IC90 [1, 22]: ~0.025 µg/mL | TC50 HCT8 [2]: 44000 nM | EC50 at 48 h [6]: 56200 nM | Cmax ([7]; single 20 mg oral dose): 186 ng/mL | Protocol defined maximum tolerated dose [8]: 80 mg

CCCCc1nc2cc(/C=C/C(=O)NO)ccc2n1CCN(CC)CC [Pracinostat]
EC50 [1, 15]: 160 nM | TC50 HCT8 [2]: 450000 nM

COc1cc(Cc2cnc(N)nc2N)cc(OC)c1OC [Trimethoprim]
EC50 [1, 17]: 2700 nM | EC90 [1, 18]: 4500 nM | inhibition at 5 µM [4, 20]: > 80%

Cn1cc(CNCC2CCN(c3ncc(C(=O)NO)cn3)CC2)c2ccccc21 [Quisinostat]
EC50 [1, 15]: 4.5 nM | IC90 [1, 21]: 10 nM | IC90 [1, 22]: ~0.004 µg/mL | TC50 HCT8 [2]: 170000 nM | EC50 [3]: 4.6 nM | EC50 [9]: 5 to 7 nM | Area under the curve (AUC) [7, 23]: 18 ng*H/mL | Peak plasma concentration (Cmax) [7, 23]: 1.9 ng/mL

CC1(C)N=C(N)N=C(N)N1OCCCOc1cc(Cl)c(Cl)cc1Cl [WR99210]
EC50 [1, 19]: 8.3 nM and ~8.3 nM | EC90 ([1]; given in Fig 2 and Fig 3B, nine-point serial dilution, 48 hours, experiments repeated twice): 14 nM

CC[C@H]1OC(=O)[C@H](C)[C@@H](O[C@H]2C[C@@](C)(OC)[C@@H](O)[C@H](C)O2)[C@H](C)[C@@H](O[C@@H]2O[C@H](C)C[C@H](N(C)C)[C@H]2O)[C@](C)(O)C[C@@H](C)CN(C)[C@H](C)[C@@H](O)[C@]1(C)O [Azithromycin]
EC50 [1, 17]: 12400 nM | EC50 [1, 16]: 12000 nM | EC90 [1, 18]: 28000 nM

Cc1[nH]c2ccccc2c1CCNCc1ccc(/C=C/C(=O)NO)cc1 [Panobinostat]
EC50 [1, 17]: 8 nM | EC50 [1, 15]: 8.4 nM | EC90 [1, 18]: 37 nM | inhibition at 5 µM [4]: > 80% | TC50 HCT8 [2]: 130000 nM | EC50 [3]: 27.2 nM | EC50 [9]: 10 to 30 nM | LD90 [10]: less than 500 nM | LD90 [11]: less than 100 nM | LD90 [12]: > 5 µM | Increase in apoptotic signaling [13]: 10- to 11 fold | Caspase expression compared with control [14]: no increase

CCN(CC)Cc1ccc2cc(COC(=O)Nc3ccc(C(=O)NO)cc3)ccc2c1 [Givinostat]
EC50 [1, 15]: 220 nM | TC50 HCT8 [2]: 43000 nM

c1ccc2c(c1)[I+]c1ccccc1-2 [diphenylene iodonium chloride, Diphenyleneiodonium chloride]
EC50 [1, 17]: 550 nM | EC90 [1, 18]: 1600 nM | inhibition at 5 µM [4, 20]: > 80%
